Reference: US10538561B2, “Peptide for treating inflammatory diseases” (priority 2015, dated 2020)
Read-outs that look alike come from different tables or passages of the source.

Key:
[1] = test system: Human endothelial cells (EA.hy 926); experiment: DNA fragmentation in endothelial cells; format: cell-based
Procedure: Cell lines: Human endothelial cells (EA.Hy 926); test item: IS 181; treatment regimen: multiple additions (2)—48 hours; concentration range: 100 μg/ml to 5000 μg/ml (Duplicate wells); sera condition: medium containing 1% FBS. […] Cells were lysed and fragmented DNA was precipitated using PEG/NaCl solution. The fragmented DNA was incubated with 0.2 μg/ml of Hoechst 33258 dye and fluorescence was read at 360 ex/460 em. End point: Percentage induction of DNA fragmentation with respect to untreated. Positive control: anthralin. IS 181 led to induction of DNA fragmentation in Ea.hy.926 cells at all the concentrations tested. […] The overall effect of IS 181 on induction of DNA fragmentation with respect to untreated in Ea.hy.926 cells ranged from 15.09% to 64.15% (FIGS. 10A-10B and Table-10).

[2] = In vitro combination Anthralin and IS 181 (MTT); format: cell-based, Human; settings: human, HaCaT keratinocytes, read-out: percent inhibition of cell viability/cytotoxicity
Procedure: (§1) Percentage cytotoxicity was determined using MTT assay.

[3] = test system: Human Keratinocytes (HaCaT); experiment: In vitro combination Anthralin and IS 181 (MTT); format: cell-based; settings: Homo sapiens, 72 h, read-out: IC 50 value of Anthralin
Procedure: as §1

[4] = test system: Caspase-3 enzyme; experiment: Caspase-3 assay; format: cell-based, Human; settings: HaCaT, 0.1 μM
Procedure: Cell lines: Human Keratinocytes (HaCaT); Test Item (TI): IS 181; Treatment regimen: Multiple additions (2)—48 hours; Concentration range: 100 μg/ml to 5000 μg/ml (Duplicate wells); Sera Condition: Medium containing 1% FBS. […] Cells were lysed and protein was estimated. The above lysates were processed further for Caspase-3 enzyme activity assay using colorimetric based method. Percentage induction of Caspase-3 enzyme activation with respect to untreated; Positive control: Anthralin. IS 181 led to induction of Caspase-3 enzyme activation in HaCaT cells at all the concentrations tested except at 100 μg/ml. […] (FIGS. 7A-7B)

[5] = test system: Human Keratinocytes (HaCaT); experiment: DNA fragmentation assay in HaCaT; format: cell-based
Procedure: Cells were lysed and fragmented DNA was precipitated using PEG/NaCl solution. The fragmented DNA was incubated with 0.2 μg/ml of Hoechst 33258 dye and fluorescence was read at 360 ex/460 em. End point: Percentage induction of DNA fragmentation with respect to untreated Positive control. Anthralin. IS 181 led to induction of DNA fragmentation in HaCaT cells at all the concentrations tested except at 100 μg/ml. […] The overall effect of IS 181 on induction of DNA fragmentation with respect to untreated in HaCaT cells ranged from −18.8% to 83.3%. (FIG. 8 and Table-6).

[6] = test system: Human endothelial cells (EA.hy 926); experiment: Inhibition of FBS stimulated endothelial cell proliferation (MTT); format: cell-based
Procedure: Cell line: Human endothelial cells (EA.hy 926); test item: IS 181: treatment regimen: multiple additions (3)-72 hours; concentration range: 1 6 g/ml to 5000 6 g/ml (triplicate wells); sera condition: medium containing 10% FBS. […] The cells were then subjected to complete serum starvation. The cells were retreated with 10% FBS to stimulate cellular proliferation. […] Inhibition of FBS stimulated cell proliferation was measured using MTT assay. End point: percentage inhibition of FBS stimulated cell proliferation. Positive controls: anthralin; paclitaxel.

[7] = test system: IL-17; experiment: IL-17 secretion in ConA stimulated splenocytes; format: cell-based, mouse; settings: splenocytes + ConA, 24 h
Procedure: (§2) Cell lines: mouse splenocytes; test item: IS181; treatment regimen: single addition—24 hours; concentration range: 10 μg/ml-5000 μg/ml.A) Identification of non-cytotoxic concentrations: splenocytes were treated with IS181 for 24 hours. Effect on cell viability was assessed by MTT assay. Concentrations leading to >75% cell viability were selected for IL-17 assay. B) IL-17 assay: splenocytes were treated with IS181 in presence of ConA stimulation for 24 hours. Supernatants were collected and stored at −20° C. till analysed. Levels of IL-17 were analysed in supernatants by ELISA. Percent inhibition of IL-17 secretion was calculated with reference to ConA treated levels. Positive control: curcumin.

[8] = Cell viability of THP-1 (MTT); format: cell-based, Human; settings: human
Procedure: (§3) Cell lines: Human monocytic cell line (THP-1); test item: IS181: treatment regimen; single addition—24 hours; concentration range: 10 μg/ml-5000 μg/ml. A) Identification of non-cytotoxic concentrations: THP-1 cells were treated with IS181 for 24 hours; effect on cell viability was assessed by MTT assay; concentrations leading to >75% cell viability were selected for IL-23 assay. […] Positive control: curcumin. […] Since supernatants corresponding to 5 concentrations were to be tested for […], we also tested 1 mg/ml.

[9] = test system: VEGF; experiment: VEGF inhibition in keratinocytes (ELISA); format: cell-based, Human; settings: HaCaT
Procedure: Cell lines: Human Keratinocytes (HaCaT); test item: IS181; treatment regimen: single addition—24 hours; concentration range: 0.1 μg/ml-100 μg/ml. […] Cells were serum-starved for another 24 hours (0% FBS). Cells were treated with IS181 for 24 hours. Supernatants were collected and stored at −20° C. till analysed. Levels of VEGF were analysed in supernatants by ELISA. Percent inhibition of VEGF secretion was calculated with reference to untreated levels. Positive control: curcumin; retinoic acid (at non-cytotoxic concentrations).

[10] = test system: IL-23; experiment: IL-23 secretion in LPS+IFN-γ stimulated THP-1; format: cell-based, Human; settings: THP-1 + LPS + IFN-γ, 24 h
Procedure: as §3

[11] = test system: Human Keratinocytes (HaCaT); experiment: Annexin-V assay; format: cell-based; settings: 10 μM-50 μM
Procedure: Cell lines: Human Keratinocytes (HaCaT); test Item (TI): IS181; Treatment regimen: treated twice (once after 24 hours)-48 hours; concentration range: 100 6 g/ml-5000 6 g/ml. […] (c) cells were treated with IS181 for 24 hours; (d) after 24 hours, cells were again treated with IS181 for 24 hours; (e) after 48 hours of first treatment, cells were stained with Annexin-V reagent and acquired on flow cytometer; (f) fold increase in apoptotic cells (early and late apoptotic) and necrotic cells was calculated with respect to untreated control cells. Positive control: Curcumin. […] (FIG. 4)

[12] = Cell viability of splenocytes (MTT); format: cell-based, mouse; settings: mouse
Procedure: as §2

O=C1c2c(O)cccc2Cc2cccc(O)c21 [Anthralin, reference compound]
% induction of DNA fragmentation ([1]; EA.hy926, 0.1 μM): 3.77% | % induction of DNA fragmentation ([1]; EA.hy926, 0.5 μM): 13.21% | cytotoxicity at 72 h, 0.01 µM ([2]; Anthralin 0.01 μM alone): 0.75% | cytotoxicity at 72 h, 0.05 µM ([2]; Anthralin 0.05 μM alone): -2.45% | cytotoxicity at 72 h, 0.1 µM ([2]; Anthralin 0.1 μM alone): 9.41% | cytotoxicity at 72 h, 0.5 µM ([2]; Anthralin 0.5 μM alone): 41.3% | cytotoxicity at 72 h, 1 µM ([2]; Anthralin 1 μM alone): 78.9% | cytotoxicity at 72 h, 5 µM ([2]; Anthralin 5 μM alone): 87.9% | IC50 ([3]; IS 181 0 μg/ml): 558 nM | IC50 ([3]; with IS 181 10 μg/ml): 628 nM | IC50 ([3]; with IS 181 50 μg/ml): 584 nM | IC50 ([3]; with IS 181 100 μg/ml): 522 nM | IC50 ([3]; with IS 181 500 μg/ml): 97.3 nM | IC50 ([3]; with IS 181 1000 μg/ml): 27.1 nM | IC50 ([3]; with IS 181 2000 μg/ml): 0.1 nM | Percentage induction of caspase-3 enzyme activation with respect to untreated [4]: 101.85 | % induction of DNA fragmentation ([5]; 0.1 μM): 60.42% | % induction of DNA fragmentation ([5]; 0.5 μM): 168.75% | Absorbance (Mean ± SD) at 540 nm ([6]; EA.hy926, 0.01 μM): 0.46 ± 0.025 | Absorbance (Mean ± SD) at 540 nm ([6]; EA.hy926, 0.1 μM): 0.45 ± 0.018 | Absorbance (Mean ± SD) at 540 nm ([6]; EA.hy926, 0.5 μM): 0.42 ± 0.013 | inhibition at 0.01 µM ([6]; Homo sapiens, EA.hy 926, EA.hy926, 0.01 μM, read-out: ¾ Inhibition of FBS stimulated cell growth): 7.21% | inhibition at 0.1 µM ([6]; Homo sapiens, EA.hy 926, EA.hy926, 0.1 μM, read-out: ¾ Inhibition of FBS stimulated cell growth): 14.6% | inhibition at 0.5 µM ([6]; Homo sapiens, EA.hy 926, EA.hy926, 0.5 μM, read-out: ¾ Inhibition of FBS stimulated cell growth): 20.4%

COc1cc(/C=C/C(=O)CC(=O)/C=C/c2ccc(O)c(OC)c2)ccc1O [Curcumin, reference compound]
inhibition at 1 µM ([7]; Mus musculus, Splenocyte, 1 μM, read-out: % Inhibition of IL-17 wrt Control (ConA)): 40.5% | inhibition at 10 µM ([7]; Mus musculus, Splenocyte, 10 μM, read-out: % Inhibition of IL-17 wrt Control (ConA)): 42.5% | Conc. of IL-17 ([7]; 1 μM): 27.7 pg/mL | Conc. of IL-17 ([7]; 10 μM): 26.7 pg/mL | viability at 24 h, 1 µM [8]: 94.7% | viability at 24 h, 10 µM [8]: 103% | viability at 24 h, 20 µM [8]: 107% | VEGF inhibition ([9]; 20 uM): did not result in any VEGF inhibition | Conc. of VEGF ([9]; 24 h, 1 μM): 3059.1 pg/mL | inhibition at 1 µM ([9]; Homo sapiens, 24 h, 1 μM, read-out: % Inhibition of VEGF wrt untreated (basal) levels): 14.9% | inhibition at 1 µM ([10]; Homo sapiens, 1 μM, read-out: % Inhibition of IL-23 wrt Control (LPS + IFN-γ)): 91.6% | inhibition at 10 µM ([10]; Homo sapiens, 10 μM, read-out: % Inhibition of IL-23 wrt Control (LPS + IFN-γ)): 90.6% | Conc. of IL-23 ([10]; 1 μM): 7.1 pg/mL | Conc. of IL-23 ([10]; 10 μM): 7.9 pg/mL | increase in early apoptotic cells [11]: 12.8-152.5 fold | increase in late apoptotic cells [11]: 2.4-138.4 fold | viability at 24 h [12]: > 75% | viability at 24 h, 1 µM [12]: 97.5% | viability at 24 h, 10 µM [12]: 82% | viability at 24 h, 20 µM [12]: 40.4%
